Test results reported in the supplement of paper PMC6045584.
± gives the standard deviation of the averaged measurements.

Columns and labels:
[1] = compound: Cn1cc(C2=Nc3cc(NC(=O)C(N)C4CCCCC4)cc4c3C2=CNNC4=O)cn1; assay: surviving fraction relative to DMSO-only wells; higher = less growth inhibition; conditions: exposure time: 5 days
How it was run: (§1)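 Five days of continuous inhibitor exposure, at 0.5, 1, 5, 10, 50, 100, 500 and 1000 nM, followed a 24-hour period after log-phase tumour cell lines were seeded at 250–500 cells per well in 384-well plates. Surviving fraction was derived from CellTiter-Glo luminescence relative to the median of DMSO-only wells. Plates were read after 10 minutes at room temperature, and lines screened three times were kept only if replicate Pearson r >0.7 and median Z' >0.3.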

[2] = compound: CC[C@@H]1C(=O)N(C)c2cnc(Nc3ccc(C(=O)NC4CCN(C)CC4)cc3OC)nc2N1C1CCCC1 [BI-2536]; assay: as above; conditions: exposure time: 5 days
How it was run: as §1

Row | Test System | surviving fraction ([1]; 0.5 nM) | surviving fraction ([1]; 1 nM) | surviving fraction ([1]; 5 nM) | surviving fraction ([1]; 10 nM) | surviving fraction ([1]; 50 nM) | surviving fraction ([1]; 100 nM) | surviving fraction ([1]; 500 nM) | surviving fraction ([1]; 1000 nM) | surviving fraction ([2]; 0.5 nM) | surviving fraction ([2]; 1 nM) | surviving fraction ([2]; 5 nM) | surviving fraction ([2]; 10 nM) | surviving fraction ([2]; 50 nM) | surviving fraction ([2]; 100 nM) | surviving fraction ([2]; 500 nM) | surviving fraction ([2]; 1000 nM)
1 | BT549 BREAST | 1.07 ± 0.11 | 0.943 ± 0.079 | 0.957 ± 0.21 | 1.05 ± 0.14 | 0.659 ± 0.073 | 0.371 ± 0.012 | 0.0533 ± 0.008 | 0.027 ± 0.006 | 0.905 ± 0.14 | 0.923 ± 0.052 | 0.229 ± 0.021 | 0.132 ± 0.038 | 0.0863 ± 0.0081 | 0.0867 ± 0.011 | 0.0667 ± 0.011 | 0.0373 ± 0.0093
2 | C33A CERVIX | 0.878 ± 0.066 | 0.99 ± 0.041 | 1.02 ± 0.094 | 1.03 ± 0.036 | 0.952 ± 0.046 | 0.833 ± 0.063 | 0.335 ± 0.011 | 0.0597 ± 0.025 | 1.12 ± 0.021 | 1.13 ± 0.085 | 0.266 ± 0.052 | 0.073 ± 0.011 | 0.0473 ± 0.0068 | 0.036 ± 0.007 | 0.0303 ± 0.01 | 0.032 ± 0.015
3 | MDAMB157 BREAST | 0.982 ± 0.061 | 0.965 ± 0.13 | 1.02 ± 0.065 | 0.994 ± 0.12 | 1 ± 0.044 | 0.916 ± 0.1 | 0.425 ± 0.057 | 0.172 ± 0.043 | 0.912 ± 0.041 | 0.62 ± 0.19 | 0.0967 ± 0.0025 | 0.0937 ± 0.013 | 0.093 ± 0.0095 | 0.157 ± 0.033 | 0.224 ± 0.013 | 0.255 ± 0.0076
4 | NCIH441 LUNG | 0.975 ± 0.037 | 1.01 ± 0.018 | 1.01 ± 0.05 | 1.06 ± 0.084 | 1.04 ± 0.024 | 0.895 ± 0.078 | 0.401 ± 0.031 | 0.319 ± 0.0068 | 1.03 ± 0.16 | 0.859 ± 0.11 | 0.571 ± 0.057 | 0.499 ± 0.041 | 0.502 ± 0.03 | 0.507 ± 0.022 | 0.36 ± 0.028 | 0.228 ± 0.01
5 | HCC38 BREAST | 1 ± 0.33 | 1.06 ± 0.23 | 0.978 ± 0.3 | 0.92 ± 0.11 | 0.114 ± 0.036 | 0.031 ± 0.0079 | 0.027 ± 0.0027 | 0.021 ± 0.0017 | 1.08 ± 0.078 | 1.15 ± 0.18 | 0.289 ± 0.021 | 0.247 ± 0.038 | 0.219 ± 0.025 | 0.254 ± 0.017 | 0.191 ± 0.019 | 0.115 ± 0.024
6 | BT20 BREAST | 1.1 ± 0.05 | 1.08 ± 0.047 | 1.09 ± 0.092 | 1.05 ± 0.074 | 0.943 ± 0.08 | 0.847 ± 0.054 | 0.976 ± 0.1 | 0.874 ± 0.065 | 1.01 ± 0.19 | 0.758 ± 0.17 | 0.0813 ± 0.018 | 0.0613 ± 0.031 | 0.0983 ± 0.025 | 0.109 ± 0.031 | 0.135 ± 0.056 | 0.154 ± 0.052
7 | SCC90 HEADNECK | 0.92 ± 0.099 | 0.952 ± 0.11 | 0.943 ± 0.12 | 0.991 ± 0.014 | 0.891 ± 0.057 | 0.702 ± 0.029 | 0.15 ± 0.0075 | 0.068 ± 0.0076 | 0.939 ± 0.12 | 0.461 ± 0.057 | 0.075 ± 0.0044 | 0.0887 ± 0.0087 | 0.148 ± 0.007 | 0.198 ± 0.022 | 0.217 ± 0.036 | 0.138 ± 0.011
8 | HCT15 LARGE INTESTINE | 0.997 ± 0.079 | 1.05 ± 0.034 | 1.07 ± 0.0081 | 1.05 ± 0.037 | 1 ± 0.063 | 1.05 ± 0.045 | 1 ± 0.031 | 0.951 ± 0.028 | 1.08 ± 0.044 | 1.04 ± 0.011 | 1.07 ± 0.026 | 0.887 ± 0.032 | 0.334 ± 0.048 | 0.0687 ± 0.014 | 0.069 ± 0.004 | 0.0617 ± 0.0076
9 | H23 LUNG | 1.05 ± 0.052 | 1.07 ± 0.092 | 1.09 ± 0.046 | 1.074 ± 0.0038 | 1.11 ± 0.1 | 1.1 ± 0.096 | 1.02 ± 0.084 | 0.944 ± 0.031 | 1.09 ± 0.05 | 1.05 ± 0.048 | 0.991 ± 0.065 | 0.446 ± 0.016 | 0.272 ± 0.015 | 0.213 ± 0.015 | 0.16 ± 0.014 | 0.142 ± 0.0076
10 | SCC47 HEADNECK | 1.02 ± 0.015 | 1.03 ± 0.13 | 1.1 ± 0.065 | 1.08 ± 0.11 | 1 ± 0.027 | 1.01 ± 0.054 | 0.981 ± 0.011 | 0.81 ± 0.094 | 1.05 ± 0.095 | 1.01 ± 0.066 | 0.455 ± 0.013 | 0.367 ± 0.034 | 0.403 ± 0.046 | 0.464 ± 0.045 | 0.437 ± 0.018 | 0.356 ± 0.02
11 | SG31 HEADNECK | 1.01 ± 0.076 | 1.06 ± 0.18 | 0.908 ± 0.1 | 0.901 ± 0.11 | 0.881 ± 0.11 | 0.825 ± 0.02 | 0.79 ± 0.021 | 0.669 ± 0.052 | 1.09 ± 0.11 | 1.27 ± 0.057 | 0.77 ± 0.099 | 0.603 ± 0.03 | 0.531 ± 0.031 | 0.573 ± 0.029 | 0.49 ± 0.034 | 0.438 ± 0.064
12 | DU4475 BREAST | 0.979 ± 0.32 | 0.981 ± 0.17 | 1.03 ± 0.2 | 0.96 ± 0.19 | 0.821 ± 0.25 | 0.659 ± 0.19 | 0.136 ± 0.026 | 0.0377 ± 0.0084 | 0.997 ± 0.25 | 1.04 ± 0.051 | 0.536 ± 0.15 | 0.233 ± 0.047 | 0.0763 ± 0.027 | 0.057 ± 0.015 | 0.031 ± 0.0053 | 0.027 ± 0.002
13 | HCC202 BREAST | 0.89 ± 0.18 | 0.775 ± 0.22 | 0.967 ± 0.15 | 0.838 ± 0.22 | 0.66 ± 0.27 | 0.505 ± 0.18 | 0.274 ± 0.049 | 0.341 ± 0.054 | 0.938 ± 0.18 | 0.952 ± 0.097 | 0.421 ± 0.034 | 0.345 ± 0.037 | 0.538 ± 0.033 | 0.502 ± 0.12 | 0.379 ± 0.044 | 0.306 ± 0.062
14 | KPD BONE | 0.953 ± 0.041 | 0.891 ± 0.018 | 1.19 ± 0.24 | 0.977 ± 0.026 | 0.84 ± 0.028 | 0.389 ± 0.021 | 0.0873 ± 0.0023 | 0.0763 ± 0.008 | 0.919 ± 0.06 | 0.925 ± 0.022 | 0.79 ± 0.024 | 0.482 ± 0.016 | 0.205 ± 0.012 | 0.197 ± 0.011 | 0.113 ± 0.0035 | 0.0597 ± 0.0038
15 | G292 BONE | 1.03 ± 0.019 | 0.968 ± 0.051 | 1.02 ± 0.077 | 1.04 ± 0.029 | 0.631 ± 0.018 | 0.315 ± 0.0083 | 0.11 ± 0.0059 | 0.0638 ± 0.0015 | 0.9403 ± 0.0023 | 0.659 ± 0.042 | 0.254 ± 0.012 | 0.23 ± 0.013 | 0.161 ± 0.011 | 0.128 ± 0.0057 | 0.0832 ± 0.0094 | 0.0727 ± 0.0063
16 | COLO320DM LARGE INTESTINE | 0.957 ± 0.12 | 1.09 ± 0.15 | 0.97 ± 0.076 | 1.08 ± 0.11 | 1.01 ± 0.23 | 0.954 ± 0.098 | 0.877 ± 0.13 | 0.664 ± 0.053 | 1.17 ± 0.018 | 1.08 ± 0.015 | 1.09 ± 0.051 | 0.836 ± 0.034 | 0.191 ± 0.019 | 0.0987 ± 0.0025 | 0.105 ± 0.011 | 0.109 ± 0.0025
17 | PCI30 HEADNECK | 0.977 ± 0.021 | 0.929 ± 0.027 | 0.994 ± 0.051 | 0.945 ± 0.014 | 0.913 ± 0.029 | 0.668 ± 0.039 | 0.365 ± 0.025 | 0.333 ± 0.012 | 0.988 ± 0.027 | 0.689 ± 0.054 | 0.128 ± 0.015 | 0.149 ± 0.01 | 0.286 ± 0.029 | 0.337 ± 0.02 | 0.357 ± 0.0049 | 0.255 ± 0.011
18 | JURKAT HAEMATOPOIETIC AND LYMPHOID TISSUE | 1.08 ± 0.016 | 1.13 ± 0.013 | 1.07 ± 0.021 | 1.06 ± 0.036 | 0.868 ± 0.019 | 0.295 ± 0.022 | 0.023 | 0.0237 ± 0.00058 | 1.04 ± 0.022 | 0.911 ± 0.015 | 0.028 ± 0.001 | 0.0257 ± 0.00058 | 0.0297 ± 0.00058 | 0.0217 ± 0.00058 | 0.0177 ± 0.00058 | 0.021
19 | SNU475 LIVER | 0.965 ± 0.028 | 0.967 ± 0.053 | 0.987 ± 0.013 | 1.01 ± 0.02 | 0.892 ± 0.038 | 0.898 ± 0.046 | 0.731 ± 0.034 | 0.514 ± 0.082 | 1.03 ± 0.05 | 1.01 ± 0.065 | 0.587 ± 0.06 | 0.255 ± 0.026 | 0.2 ± 0.033 | 0.16 ± 0.0044 | 0.169 ± 0.0055 | 0.174 ± 0.018
20 | 22RV1 PROSTATE | 1.07 ± 0.021 | 1.08 ± 0.059 | 0.99 ± 0.015 | 1.01 ± 0.02 | 1.03 ± 0.054 | 0.854 ± 0.037 | 0.626 ± 0.064 | 0.489 ± 0.029 | 1.01 ± 0.1 | 0.973 ± 0.029 | 0.1 ± 0.016 | 0.085 ± 0.012 | 0.159 ± 0.0085 | 0.221 ± 0.012 | 0.216 ± 0.013 | 0.213 ± 0.014
21 | OSHN BONE | 1.05 ± 0.044 | 1.077 ± 0.001 | 1.05 ± 0.018 | 1.062 ± 0.0075 | 0.959 ± 0.021 | 0.924 ± 0.017 | 0.0477 ± 0.0023 | 0.0277 ± 0.00058 | 1.09 ± 0.019 | 1.075 ± 0.0046 | 0.874 ± 0.072 | 0.027 ± 0.001 | 0.0297 ± 0.00058 | 0.022 ± 0.001 | 0.0237 ± 0.0021 | 0.0237 ± 0.0011
